In this experiment the target is T1, full-length human PKCι (Homo sapiens, UniProt P41743).
T1 construct: Recombinant, full-length human PKCι expressed in Sf21 insect cells is also commercially available; purchased; host or cells: Sf21 insect cells
T1 sequence (P41743 1-596): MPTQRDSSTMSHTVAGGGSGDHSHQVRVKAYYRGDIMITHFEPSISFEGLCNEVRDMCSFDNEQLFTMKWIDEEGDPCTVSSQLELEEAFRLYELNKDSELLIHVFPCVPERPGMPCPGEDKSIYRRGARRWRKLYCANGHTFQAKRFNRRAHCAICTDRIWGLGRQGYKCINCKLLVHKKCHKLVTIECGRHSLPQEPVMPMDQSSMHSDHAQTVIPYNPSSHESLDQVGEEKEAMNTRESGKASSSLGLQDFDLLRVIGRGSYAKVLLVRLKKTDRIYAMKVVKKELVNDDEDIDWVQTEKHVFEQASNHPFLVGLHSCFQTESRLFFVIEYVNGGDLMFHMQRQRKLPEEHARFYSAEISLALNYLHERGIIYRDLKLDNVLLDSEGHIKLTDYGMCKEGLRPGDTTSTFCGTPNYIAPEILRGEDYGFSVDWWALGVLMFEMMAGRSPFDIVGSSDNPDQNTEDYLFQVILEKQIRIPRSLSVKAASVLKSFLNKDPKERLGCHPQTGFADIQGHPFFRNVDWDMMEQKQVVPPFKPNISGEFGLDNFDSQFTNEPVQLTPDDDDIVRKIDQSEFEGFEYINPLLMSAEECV
Briefly: PKCι IC50 IMAP fluorescence polarisation assay, full-length enzyme. The format is biochemical. Particulars: full length PKCi at 15 μM ATP; read-out: IC50 in IMAP assay against full length PKCi. A general note: In fluorescence polarisation assays a small probe gives low polarisation when free and higher when bound to something large.

IC50 data for 13 compounds are collected here from US10183950B2, “Thienopyrimidine inhibitors of atypical protein kinase C” (Cancer Research Technology Limited, priority 2011, dated 2019).

Usually IC50 stands for the concentration that gives 50% inhibition.

For `CCCNC(=O)c1csc2c(NC[C@@H](N)Cc3ccccc3)nc(-c3ccncc3)nc12` [compound 551, 4-((S)-2-Amino-3-phenyl-propylamino)-2-pyridin-4-yl-thieno[3,2-d]pyrimidine-7-carboxylic acid propylamide], the IC50 lay within 100 to 1000 nM. For the compound `CCN(CC)C(=O)c1csc2c(NC[C@@H](N)Cc3ccccc3)nc(-c3ccncc3)nc12` [compound 552, 4-((S)-2-Amino-3-phenyl-propylamino)-2-pyridin-4-yl-thieno[3,2-d]pyrimidine-7-carboxylic acid diethylamide], the 50% inhibitory concentration (IC50) was 1000 to 10000 nM.

`CNC(=O)c1csc2c(NC[C@@H](N)Cc3ccccc3)nc(-c3ccncc3)nc12` [compound 553, 4-((S)-2-Amino-3-phenyl-propylamino)-2-pyridin-4-yl-thieno[3,2-d]pyrimidine-7-carboxylic acid methylamide]: the concentration for half-maximal inhibition (IC50) is less than 100 nM. Consider `CCNC(=O)c1csc2c(NC[C@@H](N)Cc3ccccc3)nc(-c3ccncc3)nc12` [compound 554, 4-((S)-2-Amino-3-phenyl-propylamino)-2-pyridin-4-yl-thieno[3,2-d]pyrimidine-7-carboxylic acid ethylamide], for which the 50% inhibitory concentration (IC50) was 100 to 1000 nM. Regarding `CC(C)NC(=O)c1csc2c(NC[C@@H](N)Cc3ccccc3)nc(-c3ccncc3)nc12` [compound 555, 4-((S)-2-Amino-3-phenyl-propylamino)-2-pyridin-4-yl-thieno[3,2-d]pyrimidine-7-carboxylic acid isopropylamide], the IC50 was in the range of 1000 to 10000 nM. `N[C@H](CNc1nc(-c2ccncc2)nc2c(C(=O)NC3CC3)csc12)Cc1ccccc1` [compound 556, 4-((S)-2-Amino-3-phenyl-propylamino)-2-pyridin-4-yl-thieno[3,2-d]pyrimidine-7-carboxylic acid cyclopropylamide]: the IC50 lay in the range of 100 to 1000 nM.

As for `CC(C)(C)NC(=O)c1csc2c(NC[C@@H](N)Cc3ccccc3)nc(-c3ccncc3)nc12` [compound 557, 4-((S)-2-Amino-3-phenyl-propylamino)-2-pyridin-4-yl-thieno[3,2-d]pyrimidine-7-carboxylic acid tert-butylamide], the half-maximal inhibitory concentration (IC50) lay in the range of 1000 to 10000 nM.

Consider `C#Cc1csc2c(N[C@@H]3CCNC3)nc(-c3ccncc3)nc12` [compound 559, (7-Ethynyl-2-pyridin-4-yl-thieno[3,2-d]pyrimidin-4-yl)-(R)-pyrrolidin-3-yl-amine], for which the IC50 is 100 to 1000 nM. In the case of `N#Cc1csc2c(NC[C@@H](N)Cc3ccccc3)nc(-c3ccncc3)nc12` [compound 560, 4-((S)-2-Amino-3-phenyl-propylamino)-2-pyridin-4-yl-thieno[3,2-d]pyrimidine-7-carbonitrile], the IC50 was less than 100 nM. With `N[C@H](CNc1nc(-c2ccncc2)nc2c(-n3cccn3)csc12)Cc1ccccc1` [compound 561, (S)-3-Phenyl-N*1*-(7-pyrazol-1-yl-2-pyridin-4-yl-thieno [3,2-d]pyrimidin-4-yl)-propane-1,2-diamine], the IC50 is 100 to 1000 nM. Turning to `N[C@H](CNc1nc(-c2ccncc2)nc2c(-n3ccnn3)csc12)Cc1ccccc1` [compound 562, (S)-3-Phenyl-N*1*-(2-pyridin-4-yl-7-[1,2,3]triazol-1-yl-thieno[3,2-d]pyrimidin-4-yl)-propane-1,2-diamine], the half-maximal inhibitory concentration (IC50) lay in the range of 100 to 1000 nM. For the compound `N[C@H](CNc1nc(-c2ccncc2)nc2c(CCC3CC3)csc12)Cc1ccccc1` [compound 563, (S)—N*1*-[7-(2-Cyclopropyl-ethyl)-2-pyridin-4-yl-thieno[3,2-d]pyrimidin-4-yl]-3-phenyl-propane-1,2-diamine], the IC50 fell in the range of 1000 to 10000 nM. Next, `N[C@H](CNc1nc(-c2cc[n+]([O-])cc2)nc2c(Br)csc12)Cc1ccccc1` [compound 564, (S)—N*1*-[7-Bromo-2-(1-oxy-pyridin-4-yl)-thieno[3,2-d]pyrimidin-4-yl]-3-phenyl-propane-1,2-diamine]: 1000 to 10000 nM.
